Patent US10023563B2, “Cyclic compounds substituted by a condensed ring system” (BASF SE, priority 2014, dated 2018)

Legend:
Assay type in all cases: in vivo
[1] = test system: Diamond Back Moth (Plutella xylostella); assay: Diamond back moth leaf-dip test; conditions: cabbage leaves dipped, 3rd instar larvae, 72 hours after treatment, read-out: mortality in comparison with untreated controls
Protocol: B.1 Diamond Back Moth (Plutella xylostella)
The active compound was dissolved at the desired concentration in a mixture of 1:1 (vol:vol) distilled water:aceteone. Surfactant (Kinetic HV) was added at a rate of 0.01% (vol/vol). The test solution was prepared at the day of use.
Leaves of cabbage were dipped in test solution and air-dried. Treated leaves were placed in petri dishes lined with moist filter paper and inoculated with ten 3rd instar larvae. Mortality was recorded 72 hours after treatment. Feeding damages were also recorded using a scale of 0-100%.

[2] = test system: Mediterranean Fruitfly (Ceratitis capitata); assay: Mediterranean fruitfly insect diet microtiter test; conditions: 120 h, egg and larval mortality on sprayed insect diet, 5 days, read-out: mortality in comparison with untreated controls
Protocol: B.6 Mediterranean Fruitfly (Ceratitis capitata)
For evaluating control of Mediterranean fruitfly (Ceratitis capitata) the test unit consisted of microtiter plates containing an insect diet and 50-80 C. capitata eggs. The compounds were formulated using a solution containing 75% v/v water and 25% v/v DMSO. Different concentrations of formulated compounds were sprayed onto the insect diet at 5 μl, using a custom built micro atomizer, at two replications.
(§1) After application, microtiter plates were incubated at about 28±1° C. and about 80±5% relative humidity for 5 days. Egg and larval mortality was then visually assessed.

[3] = test system: Boll Weevil (Anthonomus grandis); assay: Boll weevil insect diet microtiter test; conditions: 120 h, egg and larval mortality on sprayed insect diet, 5 days, read-out: mortality in comparison with untreated controls
Protocol: B.5 Boll Weevil (Anthonomus grandis)
For evaluating control of boll weevil (Anthonomus grandis) the test unit consisted of 96-well-microtiter plates containing an insect diet and 5-10 A. grandis eggs.
The compounds were formulated using a solution containing 75% v/v water and 25% v/v DMSO. Different concentrations of formulated compounds were sprayed onto the insect diet at 5 μl, using a custom built micro atomizer, at two replications.
After application, microtiter plates were incubated at about 25±1° C. and about 75±5% relative humidity for 5 days. Egg and larval mortality was then visually assessed.

[4] = test system: Orchid Thrips (Dichromothrips Corbetti); assay: Orchid thrips floral-immersion test; conditions: dipped orchid petals, adult thrips, 72 hours after treatment, read-out: mortality in comparison with untreated controls
Protocol: B.7 Orchid Thrips (Dichromothrips Corbetti)
Dichromothrips corbetti adults used for bioassay were obtained from a colony maintained continuously under laboratory conditions. For testing purposes, the test compound is diluted in a 1:1 mixture of acetone:water (vol:vol), plus Kinetic HV at a rate of 0.01% v/v.
Thrips potency of each compound was evaluated by using a floral-immersion technique. All petals of individual, intact orchid flowers were dipped into treatment solution and allowed to dry in Petri dishes. Treated petals were placed into individual resealable plastic along with about 20 adult thrips. All test arenas were held under continuous light and a temperature of about 28° C. for duration of the assay. After 3 days, the numbers of live thrips were counted on each petal. The percent mortality was recorded 72 hours after treatment.

[5] = test system: Rice Green Leafhopper (Nephotettix virescens); assay: Rice green leafhopper sprayed rice seedling test; conditions: sprayed potted rice seedlings, adults, after 72 hours, read-out: mortality in comparison with untreated controls
Protocol: B.8 Rice Green Leafhopper (Nephotettix virescens)
Rice seedlings were cleaned and washed 24 hours before spraying. The active compounds were formulated in 1:1 acetone:water (vol:vol), and 0.01% vol/vol surfactant (Kinetic HV) was added. Potted rice seedlings were sprayed with 5-6 ml test solution, air dried, covered with Mylar cages and inoculated with 10 adults. Treated rice plants were kept at about 28-29° C. and relative humidity of about 50-60%. Percent mortality was recorded after 72 hours.

[6] = test system: Green Peach Aphid (Myzus persicae); assay: Green peach aphid systemic test on artificial diet; conditions: 72 h, adult aphids on treated artificial diet, 3 days, read-out: mortality in comparison with untreated controls
Excerpt: B.2 Green Peach Aphid (Myzus persicae)
For evaluating control of green peach aphid (Myzus persicae) through systemic means the test unit consisted of 96-well-microtiter plates containing liquid artificial diet under an artificial membrane.
The compounds were formulated using a solution containing 75% v/v water and 25% v/v DMSO. Different concentrations of formulated compounds were pipetted into the aphid diet, using a custom built pipetter, at two replications.
After application, 5-8 adult aphids were placed on the artificial membrane inside the microtiter plate wells. The aphids were then allowed to suck on the treated aphid diet and incubated at about 23±1° C. and about 50±5% relative humidity for 3 days. Aphid mortality and fecundity was then visually assessed.

[7] = test system: Southern Armyworm (Spodoptera eridania); assay: Southern armyworm sprayed lima bean test; conditions: foliar, 96 h, sprayed lima bean foliage, larvae, 4 days after treatment, read-out: mortality in comparison with untreated controls
Protocol: B.10 Southern Armyworm (Spodoptera eridania)
The active compounds were formulated in cyclohexanone as a 10,000 ppm solution supplied in tubes. The tubes were inserted into an automated electrostatic sprayer equipped with an atomizing nozzle and they served as stock solutions for which lower dilutions were made in 50% acetone:50% water (v/v). A nonionic surfactant (Kinetic®) was included in the solution at a volume of 0.01% (v/v).
Lima bean plants (variety Sieva) were grown 2 plants to a pot and selected for treatment at the 1st true leaf stage. Test solutions were sprayed onto the foliage by an automated electrostatic plant sprayer equipped with an atomizing spray nozzle. The plants were dried in the sprayer fume hood and then removed from the sprayer. Each pot was placed into perforated plastic bags with a zip closure. About 10 to 11 armyworm larvae were placed into the bag and the bags zipped closed. Test plants were maintained in a growth room at about 25° C. and about 20-40% relative humidity for 4 days, avoiding direct exposure to fluorescent light (24 hour photoperiod) to prevent trapping of heat inside the bags. Mortality and reduced feeding were assessed 4 days after treatment, compared to untreated control plants.

[8] = test system: Vetch Aphid (Megoura viciae); assay: Vetch aphid broad bean leaf disk test; conditions: foliar, 120 h, sprayed leaf disks, adult aphids, 5 days, read-out: mortality in comparison with untreated controls
Protocol: B.3 Vetch Aphid (Megoura viciae)
For evaluating control of vetch aphid (Megoura viciae) through contact or systemic means the test unit consisted of 24-well-microtiter plates containing broad bean leaf disks.
The compounds were formulated using a solution containing 75% v/v water and 25% v/v DMSO. Different concentrations of formulated compounds were sprayed onto the leaf disks at 2.5 μl, using a custom built micro atomizer, at two replications.
After application, the leaf disks were air-dried and 5-8 adult aphids placed on the leaf disks inside the microtiter plate wells. The aphids were then allowed to suck on the treated leaf disks and incubated at about 23±1° C. and about 50±5% relative humidity for 5 days. Aphid mortality and fecundity was then visually assessed.

[9] = test system: Tobacco Budworm (Heliothis virescens); assay: Tobacco budworm insect diet microtiter test; conditions: 120 h, egg and larval mortality on sprayed insect diet, 5 days, read-out: mortality in comparison with untreated controls
Protocol: B.4 Tobacco Budworm (Heliothis virescens)
For evaluating control of tobacco budworm (Heliothis virescens) the test unit consisted of 96-well-microtiter plates containing an insect diet and 15-25 H. virescens eggs.
The compounds were formulated using a solution containing 75% v/v water and 25% v/v DMSO. Different concentrations of formulated compounds were sprayed onto the insect diet at 10 μl, using a custom built micro atomizer, at two replications.
as §1

O=C(CNC(=O)c1ccc(C2=CSC(c3cc(Cl)cc(Cl)c3)(C(F)(F)F)C2)c2c1CCC2)NCC(F)(F)F (stereo not drawn) [Compound 1-3, 7-[2-(3,5-Dichlorophenyl)-2-(trifluoromethyl)-3H-thiophen-4-yl]-N-[2-oxo-2-(2,2,2-trifluoroethylamino)ethyl]indane-4-carboxamide]
≥ 75%: mortality at 300 ppm [1] | mortality at 2500 ppm [2] | mortality at 2500 ppm [3] | mortality at 300 ppm [4] | mortality at 2500 ppm [5] | mortality at 2500 ppm [6] | mortality at 10 ppm [7] | mortality at 2500 ppm [8] | mortality at 2500 ppm [9]
